This is an account of results in ChEMBL document CHEMBL2401681 (Bioorg Med Chem Lett, 2013).

Experiment [1] addresses T1, Estrogen receptor beta (Homo sapiens, UniProt Q92731). Nature of the experiment: Antagonist activity at human Gal4-ERbeta assessed as inhibition of 17beta-estradiol-induced effect by reporter gene assay. (In general: A reporter such as luciferase makes a cellular process visible.)
In experiment [2] the target is T2, Estrogen receptor (Homo sapiens, UniProt P03372).
T2 sequence (P03372 whole entry): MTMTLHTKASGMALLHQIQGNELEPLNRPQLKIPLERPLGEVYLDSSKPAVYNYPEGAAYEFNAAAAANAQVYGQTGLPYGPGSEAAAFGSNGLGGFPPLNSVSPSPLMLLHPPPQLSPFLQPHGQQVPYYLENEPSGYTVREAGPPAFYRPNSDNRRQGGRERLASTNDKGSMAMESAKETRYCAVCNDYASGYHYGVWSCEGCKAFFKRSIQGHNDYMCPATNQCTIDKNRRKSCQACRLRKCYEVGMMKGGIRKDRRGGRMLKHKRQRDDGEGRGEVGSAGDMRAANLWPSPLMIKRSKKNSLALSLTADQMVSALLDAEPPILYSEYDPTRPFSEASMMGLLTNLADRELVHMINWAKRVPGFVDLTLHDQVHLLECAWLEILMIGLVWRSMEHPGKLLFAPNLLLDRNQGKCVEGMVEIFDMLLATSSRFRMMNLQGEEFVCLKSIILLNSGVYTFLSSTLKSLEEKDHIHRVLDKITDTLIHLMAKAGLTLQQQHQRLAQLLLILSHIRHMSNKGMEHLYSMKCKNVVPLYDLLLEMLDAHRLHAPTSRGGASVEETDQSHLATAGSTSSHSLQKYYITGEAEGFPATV
Nature of the experiment: Agonist activity at human Gal4-ERalpha by reporter gene assay.

Experiment [3] concerns the target T2, Estrogen receptor. Briefly: Antagonist activity at human Gal4-ERalpha assessed as inhibition of 17beta-estradiol-induced effect by reporter gene assay.
Experiment [4] has as its target T3, Estrogen receptor (Homo sapiens) (UniProt P03372).
T3 sequence (whole entry): T2 sequence (P03372 whole entry)
To be noted: at 3 µM.
Description: Antagonist activity at human Gal4-ERalpha assessed as inhibition of 17beta-estradiol-induced effect at 3 uM by reporter gene assay

In experiment [5] the target is T1, Estrogen receptor beta. Nature of the experiment: Agonist activity at human Gal4-ERbeta by reporter gene assay.
The target in experiment [6] is T3, Estrogen receptor (Homo sapiens). Nature of the experiment: Agonist activity at human Gal4-ERalpha at 10 uM by reporter gene assay relative to 17beta-estradiol.
A further experiment concerns the target T4, Androgen receptor (Homo sapiens, UniProt P10275).
T4 sequence (P10275 whole entry): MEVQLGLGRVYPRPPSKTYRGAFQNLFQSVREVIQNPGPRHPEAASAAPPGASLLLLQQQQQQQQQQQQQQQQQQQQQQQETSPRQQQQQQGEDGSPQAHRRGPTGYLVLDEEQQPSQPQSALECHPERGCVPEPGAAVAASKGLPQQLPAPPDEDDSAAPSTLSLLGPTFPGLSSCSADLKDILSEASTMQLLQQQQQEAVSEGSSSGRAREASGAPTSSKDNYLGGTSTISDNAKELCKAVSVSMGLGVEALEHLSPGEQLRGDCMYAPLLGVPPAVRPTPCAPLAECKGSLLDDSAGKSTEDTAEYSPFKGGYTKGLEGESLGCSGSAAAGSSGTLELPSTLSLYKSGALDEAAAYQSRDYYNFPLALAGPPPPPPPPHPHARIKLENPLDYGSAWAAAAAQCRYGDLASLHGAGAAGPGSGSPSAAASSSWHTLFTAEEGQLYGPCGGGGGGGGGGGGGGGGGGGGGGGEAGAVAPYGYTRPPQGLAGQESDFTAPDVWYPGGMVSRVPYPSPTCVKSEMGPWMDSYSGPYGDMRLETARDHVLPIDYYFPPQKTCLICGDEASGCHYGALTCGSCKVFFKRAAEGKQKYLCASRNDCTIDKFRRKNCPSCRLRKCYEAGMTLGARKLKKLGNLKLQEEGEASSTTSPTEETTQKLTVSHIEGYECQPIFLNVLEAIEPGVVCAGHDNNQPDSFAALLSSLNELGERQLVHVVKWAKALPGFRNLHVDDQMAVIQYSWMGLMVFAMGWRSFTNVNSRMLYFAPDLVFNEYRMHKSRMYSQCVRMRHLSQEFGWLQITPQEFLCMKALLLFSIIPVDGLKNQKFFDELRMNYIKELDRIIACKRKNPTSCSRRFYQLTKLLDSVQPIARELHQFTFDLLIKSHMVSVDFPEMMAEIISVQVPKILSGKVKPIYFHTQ
Nature of the experiment: Antagonist activity at human pSG5-AR assessed as inhibition of dihydrotestosterone-induced effect by reporter gene assay.

Experiment [7] addresses T1, Estrogen receptor beta. To be noted: at 3 µM.
Description: Antagonist activity at human Gal4-ERbeta assessed as inhibition of 17beta-estradiol-induced effect at 3 uM by reporter gene assay

T1 sequence (Q92731 whole entry, the tested form may be a part): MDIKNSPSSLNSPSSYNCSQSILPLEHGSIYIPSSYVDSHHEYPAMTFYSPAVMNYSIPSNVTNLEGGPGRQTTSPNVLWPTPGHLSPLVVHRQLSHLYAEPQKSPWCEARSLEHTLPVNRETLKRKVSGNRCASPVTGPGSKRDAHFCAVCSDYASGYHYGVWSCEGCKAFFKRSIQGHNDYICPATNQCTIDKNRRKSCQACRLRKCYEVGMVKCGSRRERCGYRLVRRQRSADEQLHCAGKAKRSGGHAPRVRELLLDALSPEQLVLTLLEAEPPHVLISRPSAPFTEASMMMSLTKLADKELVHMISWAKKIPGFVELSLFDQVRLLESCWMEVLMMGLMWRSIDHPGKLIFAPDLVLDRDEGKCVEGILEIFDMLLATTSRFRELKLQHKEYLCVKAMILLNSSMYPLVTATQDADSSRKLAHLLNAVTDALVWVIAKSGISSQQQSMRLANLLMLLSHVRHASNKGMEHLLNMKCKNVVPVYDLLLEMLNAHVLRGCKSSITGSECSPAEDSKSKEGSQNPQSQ

A word on the IC50: it is the concentration at which inhibition is half-maximal. The term EC50 denotes the concentration that produces a half-maximal response. Turning to `CCC(CC)(c1ccc(O)cc1)c1ccc(O)cc1`, the results for the IC50 at Estrogen receptor beta [1] (read-out: IC50) and on Estrogen receptor [3] were 93 nM and 86 nM, respectively. For the same molecule, the EC50 entry at Estrogen receptor [2] was “Not Active”.

What is called inhibition is the share of the control response that was lost under treatment. Lower therefore signals a response near the control. In experiment [4], `Cc1cc(Cc2ccc(O)c(C)c2)ccc1O` came in with an inhibition of 26%. In addition, the IC50 entry at Estrogen receptor beta [1] is on record as “Not Active”. In addition, the EC50 at Estrogen receptor beta [5] (read-out: EC50) turned out to be 5500 nM. In experiment [6], this molecule gave an Activity of 23%.

On to `CC(C)(c1ccc(O)cc1)c1ccc(O)cc1` [BISPHENOL A], for which, at Androgen receptor, the IC50 amounted to 5900 nM. The inhibition was determined as 25% at Estrogen receptor beta [7] and 38% in experiment [4]. In experiment [6], this molecule yielded an Activity of 33%.

Regarding `Cc1cc(C2(c3ccc(O)c(C)c3)CCCCC2)ccc1O`, the IC50 at Estrogen receptor beta [1] (read-out: IC50) was determined as 790 nM; on Estrogen receptor [3], 230 nM. Besides, the EC50 result at Estrogen receptor [2] and at Estrogen receptor beta [5] was “Not Active” each time.

For `CCCC[Si](CCCC)(c1ccc(O)c(C)c1)c1ccc(O)c(C)c1`, the half-inhibitory concentration (IC50) at Androgen receptor was 8200 nM; on Estrogen receptor beta [1], “Not Active”. Besides, the EC50 result on Estrogen receptor [2] and at Estrogen receptor beta [5] was “Not Active” in each case.

Take `CCCCC(CCCC)(c1ccc(O)c(CCC)c1)c1ccc(O)c(CCC)c1`: the EC50 result at Estrogen receptor [2] and on Estrogen receptor beta [5] was “Not Active” each time.

On to `CCC(CC)(c1ccc(O)cc1)c1ccc(O)c(C)c1`, for which the values for the half-inhibitory concentration (IC50) at Estrogen receptor beta [1] (read-out: IC50) and on Estrogen receptor [3] were 380 nM and 110 nM, respectively. In addition, on Estrogen receptor [2], the EC50 entry is given as “Not Active”.

Regarding `CCCc1cc(C(CCC)(CCC)c2ccc(O)c(CCC)c2)ccc1O`, the EC50 result at Estrogen receptor [2] and at Estrogen receptor beta [5] was “Not Active” throughout.

As to `CCCCC(CCCC)(c1ccc(O)c(CC)c1)c1ccc(O)c(CC)c1`, the IC50 at Estrogen receptor beta [1] (read-out: IC50) came out at 4500 nM; at Estrogen receptor [3], 2900 nM. Moreover, the EC50 entry on Estrogen receptor [2] and on Estrogen receptor beta [5] was “Not Active” throughout.

For the molecule `CCC(CC)(c1cc(C)c(O)c(C)c1)c1cc(C)c(O)c(C)c1`, the figures for the IC50 on Estrogen receptor beta [1] (read-out: IC50) and at Estrogen receptor [3] were 300 nM and 74 nM, respectively. In addition, the concentration giving a half-maximal response (EC50) entry at Estrogen receptor [2] and at Estrogen receptor beta [5] was “Not Active” each time.

On to `Oc1ccc(C2(c3ccc(O)cc3)CCCC2)cc1`, for which the values for the IC50 at Estrogen receptor beta [1] (read-out: IC50) and at Estrogen receptor [3] were 270 nM and 170 nM, respectively. Besides, the EC50 result on Estrogen receptor [2] and at Estrogen receptor beta [5] was “Not Active” in each case.

In the case of `CCCCC(CCCC)(c1ccc(O)cc1)c1ccc(O)cc1`, the IC50 at Estrogen receptor beta [1] (read-out: IC50) was found to be 180 nM; on Estrogen receptor [3], 79 nM. The EC50 result at Estrogen receptor [2] and at Estrogen receptor beta [5] was “Not Active” in each case.

`Oc1ccc(C2(c3ccc(O)cc3)CCCCC2)cc1`: the 50% inhibitory concentration (IC50) came to 560 nM on Estrogen receptor beta [1] (read-out: IC50) and 520 nM on Estrogen receptor [3]. For the same molecule, the EC50 result at Estrogen receptor [2] and on Estrogen receptor beta [5] was “Not Active” in each case.

Regarding `CC[Si](CC)(c1ccc(O)c(C)c1)c1ccc(O)c(C)c1`, the IC50 at Androgen receptor came out at 1900 nM; on Estrogen receptor beta [1] (read-out: IC50), 800 nM; at Estrogen receptor [3], 72 nM. Besides, the EC50 result on Estrogen receptor [2] and at Estrogen receptor beta [5] was “Not Active” throughout.

Take `Cc1cc(C2(c3ccc(O)c(C)c3)CCCC2)ccc1O`: the results for the IC50 on Estrogen receptor beta [1] (read-out: IC50) and on Estrogen receptor [3] were 770 nM and 84 nM, respectively. In addition, the 50% effective concentration (EC50) result at Estrogen receptor [2] and at Estrogen receptor beta [5] was “Not Active” in each case.

Consider `Cc1cc(C(C)(C)c2ccc(O)cc2)ccc1O`, for which the results for the inhibition (on Estrogen receptor beta [7]; in experiment [4]) were 26% and 48%, respectively. Also, the Activity in experiment [6] worked out at 26%.

Turning to `CCC(CC)(c1ccc(N)c(C)c1)c1ccc(O)c(C)c1`, the IC50 at Androgen receptor came out at 5400 nM; on Estrogen receptor beta [1] (read-out: IC50) it was 43 nM; on Estrogen receptor [3], 98 nM. For the same molecule, the EC50 entry on Estrogen receptor [2] and at Estrogen receptor beta [5] was “Not Active” in each case.

Take `CCCc1cc(C(CC)(CC)c2ccc(O)c(CCC)c2)ccc1O`: the EC50 entry on Estrogen receptor [2] and at Estrogen receptor beta [5] was “Not Active” each time.

Consider `CCC(CC)(c1ccc(O)c(C)c1)c1ccc(O)c(C)c1`, for which the IC50 on Androgen receptor came to 4500 nM; on Estrogen receptor beta [1] (read-out: IC50), 260 nM; on Estrogen receptor [3], 25 nM. Also, at Estrogen receptor [2], the EC50 result is recorded as “Not Active”.

On to `CCCCC(CCCC)(c1ccc(O)c(C)c1)c1ccc(O)c(C)c1`, for which the IC50 is 150 nM on Estrogen receptor beta [1] (read-out: IC50) and 14 nM at Estrogen receptor [3]. In addition, the EC50 result at Estrogen receptor [2] and on Estrogen receptor beta [5] was “Not Active” in each case.

As for `CCc1cc(C(CC)(CC)c2ccc(O)c(CC)c2)ccc1O`, the IC50 was 1300 nM on Estrogen receptor beta [1] (read-out: IC50) and 230 nM on Estrogen receptor [3]. Further, the EC50 result on Estrogen receptor [2] and on Estrogen receptor beta [5] was “Not Active” in each case.

In the case of `Oc1ccc(Cc2ccc(O)cc2)cc1`, the inhibition amounted to 24% at Estrogen receptor beta [7] and 35% in experiment [4]. In addition, the EC50 on Estrogen receptor [2] (read-out: EC50) turned out to be 910 nM; at Estrogen receptor beta [5] (read-out: EC50), 1900 nM.

For `CCCC(CCC)(c1ccc(O)c(CC)c1)c1ccc(O)c(CC)c1`, the results for the IC50 on Estrogen receptor beta [1] (read-out: IC50) and on Estrogen receptor [3] were 2600 nM and 490 nM, respectively. For the same molecule, the EC50 entry on Estrogen receptor [2] and on Estrogen receptor beta [5] was “Not Active” throughout.

On to `CCCC(CCC)(c1ccc(O)c(C)c1)c1ccc(O)c(C)c1`, for which the figures for the IC50 at Androgen receptor, at Estrogen receptor beta [1] (read-out: IC50) and at Estrogen receptor [3] were 25000 nM, 140 nM and 4.9 nM, respectively. For the same molecule, the EC50 result at Estrogen receptor [2] and at Estrogen receptor beta [5] was “Not Active” in each case.

Consider `CCCC(CCC)(c1ccc(O)cc1)c1ccc(O)cc1`, for which the half-inhibitory concentration (IC50) on Estrogen receptor beta [1] (read-out: IC50) was found to be 2200 nM; at Estrogen receptor [3], 99 nM. Moreover, the EC50 result on Estrogen receptor [2] was “Not Active”.

`Cc1cc(C(C)(C)c2ccc(O)c(C)c2)ccc1O` had an Activity in experiment [6] of 31%.
